Test systems include SK-MEL-2; IGROV-1; A549; SW-620; SNB-75; HL-60; NCI-H460; MCF7; NCI/ADR-RES; SK-MEL-28; ACHN; MOLT-4; K562; NCI-H23; 786-0; HT-29; EKVX; SN12C; NCI-H226.
Holding throughout (test): NCI anticancer screen, dose series, 48 h

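Exposure lasted 48 hours, with cells grown in 96-well plates and compounds tested at five concentrations. GI50 is the concentration that inhibits growth by half.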 The source made the active and inactive calls. Cut-off read from the data, not from the text of the source: active = GI50 up to about 1.1 µM and inactive = higher.

Regarding `Cc1nc2c(cc1C(=O)N/N=C/c1ccc([N+](=O)[O-])cc1)c(=O)n(C)c(=O)n2C`, the GI50 is 31.8 µM (inactive) in the assay with SK-MEL-2; 42.4 µM (inactive) with IGROV-1; > 100 µM (inactive) with A549; > 100 µM (inactive) in the assay on SW-620; > 100 µM (inactive) in the assay on SNB-75; > 100 µM (inactive) in the assay on HL-60. Besides, the GI50 with NCI-H460, in the assay on MCF7, with NCI/ADR-RES, with SK-MEL-28, in the assay with ACHN and with MOLT-4 was > 100 µM (inactive) in each case. In addition, the GI50 in the assay with K562 was > 100 µM (inactive); in the assay with NCI-H23 it was 41.8 µM (inactive); with 786-0, 26.5 µM (inactive); with HT-29 it was > 100 µM (inactive); with EKVX it was 91.2 µM (inactive); in the assay on SN12C it was > 100 µM (inactive). Further, in the assay on NCI-H226, the GI50 was 80.2 µM (inactive).
Turning to `CC(C)(C)OC(=O)NC(Cc1ccc(OC(C)(C)C)cc1)C(=O)N[C@H]1CC[C@H](C(=O)O)C1` (stereo partly drawn), the GI50 with SK-MEL-2, in the assay with IGROV-1, in the assay with A549, with SW-620, with SNB-75 and with HL-60 was > 100 µM (inactive) each time. The GI50 with NCI-H460, in the assay on MCF7, in the assay on NCI/ADR-RES, in the assay with SK-MEL-28, in the assay on ACHN and in the assay with MOLT-4 was > 100 µM (inactive) in each case. In addition, the GI50 with K562, in the assay on NCI-H23, in the assay on 786-0, with HT-29, in the assay with EKVX and with SN12C was > 100 µM (inactive) throughout. In addition, the GI50 with NCI-H226 was > 100 µM (inactive).
On to `O=C(CCc1ccc(O)c(O)c1)NCCc1cc(O)cc(O)c1`, for which the GI50 in the assay on SK-MEL-2, in the assay with IGROV-1, in the assay on A549, with SW-620, in the assay on SNB-75 and in the assay with HL-60 was > 100 µM (inactive) throughout. Also, the GI50 with NCI-H460 was > 100 µM (inactive); in the assay on MCF7, 66.8 µM (inactive); with NCI/ADR-RES it was > 100 µM (inactive); with SK-MEL-28, > 100 µM (inactive); with ACHN it was > 100 µM (inactive); in the assay on MOLT-4 it was > 100 µM (inactive). The GI50 with K562 is 25.7 µM (inactive); in the assay on NCI-H23, > 100 µM (inactive); in the assay on 786-0, > 100 µM (inactive); with HT-29, > 100 µM (inactive); in the assay with EKVX it was > 100 µM (inactive); in the assay on SN12C it was > 100 µM (inactive). In addition, in the assay with NCI-H226, the GI50 was > 100 µM (inactive).
In the case of `CC(=O)NNc1nc(C)c(C(/C=C/c2cccc([N+](=O)[O-])c2)=N/NC(=S)NN)s1`, the GI50 with SK-MEL-2, with IGROV-1, in the assay with A549, in the assay with SW-620, in the assay on SNB-75 and in the assay on HL-60 was > 100 µM (inactive) in each case. Besides, the GI50 with NCI-H460, in the assay on MCF7, in the assay on NCI/ADR-RES, with SK-MEL-28, in the assay with ACHN and with MOLT-4 was > 100 µM (inactive) throughout. Also, the GI50 is > 100 µM (inactive) in the assay on K562; > 100 µM (inactive) with NCI-H23; > 100 µM (inactive) in the assay with 786-0; > 100 µM (inactive) in the assay with HT-29; 52.1 µM (inactive) with EKVX; > 100 µM (inactive) in the assay with SN12C. In addition, the GI50 in the assay on NCI-H226 was > 100 µM (inactive).
As to `c1ccc(CSc2nnc3c4ccccc4c4ccccc4c3n2)cc1`, the GI50 in the assay with SK-MEL-2 is 36.6 µM (inactive); in the assay with A549, > 89.3 µM (inactive); in the assay on SW-620, 38.2 µM (inactive); in the assay on SNB-75 it was 8.73 µM (inactive); in the assay on HL-60, > 36.2 µM (inactive); in the assay on NCI-H460, > 88.3 µM (inactive). In addition, the GI50 with MCF7 is 29.1 µM (inactive); with NCI/ADR-RES, 60.5 µM (inactive); with SK-MEL-28, > 100 µM (inactive); with ACHN it was 61 µM (inactive); in the assay on MOLT-4, 39.1 µM (inactive); with K562, 14.8 µM (inactive). In addition, the GI50 with NCI-H23 is 48.2 µM (inactive); with 786-0, 34.8 µM (inactive); with HT-29, > 100 µM (inactive); with EKVX, 27.2 µM (inactive); in the assay on SN12C, > 93.8 µM (inactive); in the assay on NCI-H226, 45.6 µM (inactive).
With `CCOC(=O)C(=NN(C)c1ncccc1N)C(=O)OCC`, the GI50 with SK-MEL-2 is 29.6 µM (inactive); in the assay on IGROV-1 it was 61 µM (inactive); with A549 it was > 100 µM (inactive); in the assay with SW-620, 27.6 µM (inactive); in the assay with SNB-75, > 100 µM (inactive); with HL-60, 15.1 µM (inactive). The GI50 in the assay with NCI-H460 is > 100 µM (inactive); with MCF7, 20.5 µM (inactive); in the assay with NCI/ADR-RES, 53.3 µM (inactive); in the assay with SK-MEL-28, > 100 µM (inactive); in the assay on MOLT-4, 21.5 µM (inactive); in the assay with K562, 25.4 µM (inactive). The GI50 with NCI-H23 was 45.5 µM (inactive); with 786-0, 29.6 µM (inactive); in the assay with HT-29 it was 65.6 µM (inactive); in the assay on SN12C, 24.7 µM (inactive); with NCI-H226, 21.6 µM (inactive).
In the case of `COc1ccccc1C(=O)OCC1CCCN2CCCCC12` (stereo not drawn), the GI50 is 54.3 µM (inactive) with SK-MEL-2; 25.8 µM (inactive) in the assay with A549; > 100 µM (inactive) in the assay on SW-620; 20.6 µM (inactive) in the assay with SNB-75; 21.1 µM (inactive) in the assay on HL-60; 21.6 µM (inactive) in the assay on NCI-H460. Moreover, the GI50 in the assay on MCF7 is 42.4 µM (inactive); in the assay with NCI/ADR-RES, 37.3 µM (inactive); with SK-MEL-28 it was 26.4 µM (inactive); with ACHN it was > 100 µM (inactive); in the assay with MOLT-4, 38.5 µM (inactive); in the assay with K562, 33.9 µM (inactive). Moreover, the GI50 is > 100 µM (inactive) with NCI-H23; > 100 µM (inactive) in the assay on 786-0; 16.6 µM (inactive) in the assay on HT-29; 81.7 µM (inactive) in the assay on EKVX; 29.7 µM (inactive) with SN12C; 54.8 µM (inactive) with NCI-H226.
For the compound `O=[N+]([O-])c1cccc2nc3ccccc3c(NCCc3cccc[n+]3[O-])c12`, the GI50 is 0.0619 µM (active) with SK-MEL-2; < 0.0159 µM (active) in the assay with A549; < 0.01 µM (active) in the assay on SW-620; < 0.0438 µM (active) with SNB-75; < 0.0427 µM (active) with HL-60; < 0.0141 µM (active) with NCI-H460. The GI50 is < 0.0116 µM (active) in the assay with MCF7; 0.608 µM (active) in the assay on NCI/ADR-RES; < 0.01 µM (active) in the assay on SK-MEL-28; 0.0103 µM (active) in the assay on ACHN; < 0.0144 µM (active) in the assay with MOLT-4; 0.0168 µM (active) with K562. The GI50 is < 0.0115 µM (active) in the assay on NCI-H23; < 0.0168 µM (active) in the assay with 786-0; 0.0103 µM (active) with HT-29; < 0.0212 µM (active) in the assay with EKVX; < 0.0199 µM (active) with SN12C; 0.0738 µM (active) in the assay on NCI-H226.
`O=C(c1cc2ccccc2cc1O)N1CCCCC1`: the GI50 was 17.3 µM (inactive) in the assay with SK-MEL-2; 13.5 µM (inactive) in the assay on IGROV-1; 48 µM (inactive) in the assay on SW-620; 31.5 µM (inactive) in the assay with SNB-75; 20.4 µM (inactive) in the assay with HL-60; 27.7 µM (inactive) in the assay on NCI-H460. Also, the GI50 with MCF7 is 26.4 µM (inactive); with NCI/ADR-RES, 23.8 µM (inactive); with SK-MEL-28, 41.8 µM (inactive); in the assay on ACHN, 38.2 µM (inactive); with MOLT-4, 15.3 µM (inactive); in the assay with K562, 21.6 µM (inactive). In addition, the GI50 was 59.4 µM (inactive) in the assay on 786-0, 25.6 µM (inactive) in the assay on HT-29, 20.3 µM (inactive) in the assay with EKVX and 17.8 µM (inactive) in the assay with NCI-H226.
As for `Cc1cc(C)c2c(c1)CC1(Cc3c(C)cc(C)cc3C1=O)C2=O` (stereo not drawn), the GI50 was > 100 µM (inactive) with SK-MEL-2; 84.5 µM (inactive) in the assay on IGROV-1; 98.6 µM (inactive) in the assay with A549; > 100 µM (inactive) in the assay on SW-620; > 100 µM (inactive) in the assay on SNB-75; > 100 µM (inactive) with HL-60. Further, the GI50 in the assay with NCI-H460, in the assay on MCF7, in the assay on NCI/ADR-RES, with SK-MEL-28, with ACHN and with MOLT-4 was > 100 µM (inactive) in each case. Further, the GI50 with K562, in the assay with 786-0, in the assay on EKVX, in the assay with SN12C and in the assay with NCI-H226 was > 100 µM (inactive) throughout.
For `COc1ccc(Cc2ccccc2C(=O)O)c2ccccc12`, the GI50 was 22.2 µM (inactive) in the assay on SK-MEL-2; 30.6 µM (inactive) in the assay with IGROV-1; 33 µM (inactive) in the assay with A549; 31.6 µM (inactive) in the assay on SW-620; 34.4 µM (inactive) in the assay on SNB-75; 21 µM (inactive) with HL-60. In addition, the GI50 in the assay with NCI-H460 is 18.8 µM (inactive); with MCF7, 38.1 µM (inactive); in the assay with NCI/ADR-RES it was 32.5 µM (inactive); in the assay on SK-MEL-28 it was 25.1 µM (inactive); in the assay with ACHN, 31.2 µM (inactive); with K562, 37 µM (inactive). In addition, the GI50 with NCI-H23 was 25.5 µM (inactive); in the assay with 786-0, 34.2 µM (inactive); in the assay on HT-29, 28.8 µM (inactive); in the assay with EKVX, 26.4 µM (inactive); with SN12C it was 29.2 µM (inactive); with NCI-H226 it was 39.4 µM (inactive).

(Values after ChEMBL document CHEMBL1201862, “PubChem BioAssay data set” (2004).)
